Results taken from doi:10.1101/2023.10.20.563248v1 (biorxiv, 2023).

How the values were obtained:
[1] = target: MST4 (full-length, NanoLuc fusion) (Homo sapiens, UniProt Q9P289); experiment: NanoBRET tracer displacement, HEK293T; type: cell-based; conditions: intact cells; […] °C, […] h; competitive with tracer
[2] = target: MST3 (full-length, NanoLuc fusion) (Homo sapiens, UniProt Q9Y6E0); experiment: cell-based
[3] = target: MST1 (full-length, NanoLuc fusion) (Homo sapiens, UniProt Q13043); experiment: NanoBRET tracer displacement, HEK293T; type: cell-based; conditions: intact cells; […] °C, […] h; competitive with tracer
[4] = target: MST2 (full-length, NanoLuc fusion) (Homo sapiens, UniProt Q13188); experiment: NanoBRET tracer displacement, HEK293T; type: cell-based; conditions: intact cells; […] °C, […] h; competitive with tracer
Chain of MST2 (full-length, NanoLuc fusion) (Q13188 whole entry, the tested form may be a part): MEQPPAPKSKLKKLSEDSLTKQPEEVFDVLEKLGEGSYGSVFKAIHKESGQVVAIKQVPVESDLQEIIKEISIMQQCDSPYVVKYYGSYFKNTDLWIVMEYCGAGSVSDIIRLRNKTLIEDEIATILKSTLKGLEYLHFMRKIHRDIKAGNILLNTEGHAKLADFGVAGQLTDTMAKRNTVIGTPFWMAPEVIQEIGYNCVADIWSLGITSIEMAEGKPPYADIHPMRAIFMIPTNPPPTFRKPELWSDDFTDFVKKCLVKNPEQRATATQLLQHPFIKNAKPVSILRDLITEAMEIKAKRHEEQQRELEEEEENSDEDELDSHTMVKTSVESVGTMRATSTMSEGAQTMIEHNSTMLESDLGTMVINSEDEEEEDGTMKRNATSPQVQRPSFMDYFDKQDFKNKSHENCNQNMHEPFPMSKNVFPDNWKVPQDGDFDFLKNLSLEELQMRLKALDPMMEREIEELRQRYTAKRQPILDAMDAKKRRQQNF

Chain of MST3 (full-length, NanoLuc fusion) (Q9Y6E0 whole entry, the tested form may be a part): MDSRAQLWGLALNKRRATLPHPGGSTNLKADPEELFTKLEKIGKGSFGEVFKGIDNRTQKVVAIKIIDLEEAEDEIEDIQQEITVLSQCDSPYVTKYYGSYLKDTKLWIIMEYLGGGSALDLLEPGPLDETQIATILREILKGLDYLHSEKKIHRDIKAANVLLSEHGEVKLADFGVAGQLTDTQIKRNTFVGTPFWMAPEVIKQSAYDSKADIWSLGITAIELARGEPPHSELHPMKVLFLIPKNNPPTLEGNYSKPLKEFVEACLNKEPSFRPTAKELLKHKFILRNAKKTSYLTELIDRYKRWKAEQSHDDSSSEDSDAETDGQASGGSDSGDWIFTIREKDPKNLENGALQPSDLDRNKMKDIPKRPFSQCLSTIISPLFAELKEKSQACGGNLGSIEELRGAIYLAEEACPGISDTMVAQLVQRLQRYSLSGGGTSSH
Chain of MST4 (full-length, NanoLuc fusion) (Q9P289 whole entry, the tested form may be a part): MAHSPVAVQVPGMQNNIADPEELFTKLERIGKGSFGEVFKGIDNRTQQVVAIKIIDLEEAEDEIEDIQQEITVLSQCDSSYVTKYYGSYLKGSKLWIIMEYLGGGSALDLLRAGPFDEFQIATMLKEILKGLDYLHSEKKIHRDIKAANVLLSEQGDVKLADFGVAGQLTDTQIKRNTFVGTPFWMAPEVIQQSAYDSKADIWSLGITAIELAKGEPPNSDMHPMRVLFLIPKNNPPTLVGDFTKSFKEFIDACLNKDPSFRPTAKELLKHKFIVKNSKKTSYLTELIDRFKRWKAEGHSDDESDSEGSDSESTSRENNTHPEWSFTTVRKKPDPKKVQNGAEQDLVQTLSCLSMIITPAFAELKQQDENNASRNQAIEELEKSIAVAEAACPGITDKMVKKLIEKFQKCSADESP
Chain of MST1 (full-length, NanoLuc fusion) (Q13043 whole entry, the tested form may be a part): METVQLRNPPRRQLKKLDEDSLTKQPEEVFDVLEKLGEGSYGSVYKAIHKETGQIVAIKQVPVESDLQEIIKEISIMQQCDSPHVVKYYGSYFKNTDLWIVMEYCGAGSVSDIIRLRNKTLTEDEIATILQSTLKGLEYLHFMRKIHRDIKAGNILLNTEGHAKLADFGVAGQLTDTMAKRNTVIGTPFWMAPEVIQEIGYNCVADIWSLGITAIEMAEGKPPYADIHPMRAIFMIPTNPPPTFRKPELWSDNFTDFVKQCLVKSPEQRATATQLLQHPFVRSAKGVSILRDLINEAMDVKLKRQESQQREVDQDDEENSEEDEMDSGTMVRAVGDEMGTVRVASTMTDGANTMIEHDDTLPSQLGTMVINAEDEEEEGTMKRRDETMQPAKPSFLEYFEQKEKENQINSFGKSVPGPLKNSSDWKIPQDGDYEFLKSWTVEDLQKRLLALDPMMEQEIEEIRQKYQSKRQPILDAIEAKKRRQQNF

Structure (SMILES)	EC50 [1]	EC50 [2]	EC50 [3]	EC50 [4]
O=C1NCCCCCCNc2nc(c3ccccc3n2)Nc2cc1[nH]n2 [21e, (Z)-3^1H-2,5,12-triaza-1(4,2)-quinazolina-3(3,5)-pyrazolacyclododecaphan-4-one]	2400 nM	1800 nM	–	–
N#CCc1ccc(Nc2nccc(Nc3cc(C4CC4)[nH]n3)n2)cc1 [compound 1, 1]	–	–	200 nM	110 nM
